# Measurements as given in patent US7786142B2, “Heterocyclic compounds as pSTAT3/IL-6 inhibitors” (Orchid Research Laboratories, Ltd., priority 2005, dated 2010).
# Entries after “also recorded” stand apart in the source; their conditions may differ.
# Assays:
# [1] = test system: MDAMB-231/U 251; experiment: Anti-cancer screen (MTT), MDAMB-231/U 251 cells; format: cell-based; conditions: MDAMB-231/U 251, 48 hours, concentrations tested 0.01-100 μM; for CC50: read-out: LC50 (the source's name)
# Description: (§1) Experimental drugs are screened for anti-cancer activity in three cell lines for their GI50, TGI and LC50 values (using five concentrations for each compound). The cell lines are maintained in DMEM containing 10% fetal bovine serum. 96 well micro titer plates are inoculated with cells in 100 μL for 24 hours at 37° C., 5% CO2, 95% air and 100% relative humidity. 5000 HCT116 cells/well, 5000 NCIH460 cells/well and 5000 U251 cells/well are plated. A separate plate with these cell lines is also inoculated to determine cell viability before the addition of the compounds (T0), (See Table I).
# (§2) Following 24-hours incubation, experimental drugs are added to the 96 well plates. Each plate contains one of the above cell lines and the following in triplicate: five different concentrations (0.01, 0.1, 1, 10 and 100 μM) of four different compounds, appropriate dilutions of a cytotoxic standard and control (untreated) wells. Compounds are dissolved in DMSO to make 20 mM stock solutions on the day of drug addition and frozen at −20° C. Serial dilutions of these 20 mM stock solutions are made in complete growth medium such that 100 μL of these drug solutions in medium, of final concentrations equaling 0.01, 0.1, 1, 10 and 100 μM can be added to the cells in triplicate. Standard drugs whose anti-cancer activity has been well documented and which are regularly used are Doxorubicin and SAHA, (See Table I).
# (§3) For T0 measurement, 24 hours after seeding the cells, 10 μL of 3-(4,5-Dimethyl-2-thiazolyl)-2,5-diphenyl-2H-tetrazolium (MTT) solution per well is added and incubation carried out for 3 hours at 37° C., 5% CO2, 95% air and 100% relative humidity, protected from light. Cells incubated with compounds for 48 hours are treated similarly except with the addition of 20 μL MTT solution per well and a subsequent incubation under the same conditions. After 3 hours of MTT incubation, well contents are aspirated carefully followed by addition of 150 μL DMSO per well. Plates are agitated to ensure solution of the formazan crystals in DMSO and absorbance read at 570 nm, (See Table I).
# (§4) Percent growth is calculated for each compound's concentration relative to the control and zero measurement wells (T0; viability right before compound addition). If a test well's O.D. value is greater than the T0 measurement for that cell line % Growth=(test−zero)/(control−zero)×100
# [2] = test system: NCIH460 cells; experiment: Anti-cancer screen (MTT), NCIH460 cells; format: cell-based; conditions: Homo sapiens, NCI-H460, NCIH460, 48 hours, concentrations tested 0.01-100 μM; for CC50: read-out: LC50 (the source's name)
# Description: as §1, §2, §3, §4
# [3] = test system: IL-6; experiment: IL-6 in culture supernatants of NCIH 460 cells (ELISA); format: cell-based, Human; conditions: NCIH 460, 5 hours
# Description: Human Lung Cancer cell line (NCIH 460) is used for IL-6 measurement. 5000 cells/well were seeded in a 96 well plate and incubated in CO2 incubator at 37° C. for 24 hours. After 24 hours of incubation the medium from all wells were completed removed and added 100 μl of fresh DMEM containing 10% FCS. 100 μl of different concentrations of the drug were added and incubated for 5 hours in CO2 incubator at 37° C. After 5 hours of incubation the supernatants were collected and stored at −80° C. The concentration of IL-6 in the supernatant was measured using ELISA kit and the IC50 value of the compound was determined from the dose response curve, (See Table II).
# [4] = test system: HCT116 cells; experiment: Anti-cancer screen (MTT), HCT116 cells; format: cell-based; conditions: Homo sapiens, HCT-116, HCT116, 48 hours, concentrations tested 0.01-100 μM
# Description: as §1, §2, §3, §4
# [5] = test system: pSTAT3; experiment: pSTAT3 inhibition (Western blot in DU 145 / SKOV-3 cells; ELISA in HepG2 cells); format: cell-based; conditions: in words; FIGS. 1 and 2
# Description: Western blot analysis was performed as described by Kammer W et. al (J Biol Chem 271, 23634-23637, and J Biol Chem 273, 31222-31229). Briefly, 60 μg of whole cell extract was solubilized in Laemmeli buffer (50 mM Tris/HCl, pH 6.8, 2% SDS, 10% glycerol, 1 mM DTT, 1× Protease inhibitor cocktail, SET-3 (Calbiochem), 1 mM Sodium Ortho-vanadate) boiled for 5-10 minutes, and separated on a 10 or 12% acrylamide SDS gel. After protein transfer, the nitrocellulose membranes were blocked in blocking buffer for 2 hour (1×TBS, 0.1% Tween-20, 5% BSA). Membranes were incubated for 20 hours in blocking buffer containing, STAT3 P-Tyr705 (Santa Cruz Biotech), STAT3 (H-190, Santa Cruz Biotech) and Actin (C-2, Santa Cruz Biotech) antibody at 1:300 dilution. Detection was performed with HRP conjugated antimouse/antirabbit IgG (Santa Cruz Biotech) at a dilution of 1:3,000 for 1 hour. Visualization was performed using an Enhanced Chemiluminescence detection kit (Amersham). See Appended Diagrams: FIGS. 1 and 2. […]
# Capture Antibody was diluted to a working concentration of 2.0 μg/mL in PBS. […] The plates were made ready after 2-3 washes with wash buffer. […] The reaction was stopped by adding 50 μl of stop solution to each well and the OD was determined using a microplate reader at 450 nm.
# [6] = test system: NCI H460 Xenograft; experiment: In-vivo anti-cancer activity, NCI H460 xenograft model; set-up: species or system SCID mice; conditions: for in-vivo anti-cancer activity: NCI H460 Xenograft model, in words
# Description: Experiments were carried out using 6-8 week old female athymic SCID (Severe Combined Immune Deficient) mice. The mice were kept in laminar flow rooms (housed in Individually Ventilated Cages) at constant temperature and humidity. They had free access to food and water. Tumors were obtained form ATCC and maintained by s.c. passages of tumor fragments (about 2×2×2 mm) in healthy mice according to standard reported procedures. Each experimental group included six/eight mice bearing bilateral tumors. Tumors were implanted on day 0, and tumor growth was followed by biweekly measurements of tumor diameters with a Vernier caliper. Tumor Volume (TV) was calculated according to the following formula: TV (mm^3)=d^2 XD/2, where d and D are the shortest diameter and the longest diameter of the tumor, respectively. The drug treatment started when tumors were just measurable (Mean TV=150-200 mm^3).
# (§5) All test compound/standard drugs were delivered by gavage in a volume of 10 ml/kg. Drugs were administered every day for single time to a period of 21 days. Control mice were treated with the drug solvent/vehicle. Tumor size is measured every alternate days and body weight is recorded daily.
# (§6) • a) Tumor Volume Inhibition (TVI): A TVI value higher than 80% is indicative of active compounds. • b) T/C % is also another indicator for the activity. A reproducible 20% T/C is considered as therapeutically active. • c) Log Cell Kill (LCK): A LCK value greater than 1 is indicative of active compounds. • d) Relative Tumor Volume (RTV), Tumor Delay and % Tumor volume change are also considered as valuable additional parameters for assessment. • e) Toxic effects of drug treatment were assessed by Body Weight Loss % • f) Lethal toxicity was defined as any death in treated groups occurring before any control death. Mice were inspected daily for mortality and toxic clinical signs.
# [7] = test system: NCIH460, HCT116, MDAMB-231/U 251; experiment: Anti-cancer screen, mean GI50 over the cell lines; format: cell-based
# Description: as §1, §2, §3, §4
# [8] = mouse, in vivo
# Description: as §5, §6
# [9] = test system: Jak2/Stat3 signaling; conditions: literature (Burdelya et al., 2002; Meydan et al., 1996; Constantin et al., 1998); cited from earlier work
SMILES,GI50 [1] [µM],IC (TGI) [1] [µM],CC50 [1] [µM],GI50 [2] [µM],IC (TGI) [2] [µM],CC50 [2] [µM],"inhibition at 0.1 µM ([3]; Homo sapiens, NCI-H460, 0.1 μM) [%]","inhibition at 1 µM ([3]; Homo sapiens, NCI-H460, 1 μM) [%]","IC50 ([3]; Homo sapiens, NCI-H460, read-out: IL-6 Inhibition IC50) [µM]",GI50 [4] [µM],IC (TGI) [4] [µM],LC50 (concentration for 50% net cell kill relative to T0) [4] [µM],pSTAT3 inhibition [5],in-vivo anti-cancer activity [6],"inhibition against NCI H460 Xenograft model ([6]; SCID mice, gavage, every day for 21 days) [%]",GI50 [7] [µM],body weight loss [8],IL-6 Inhibition IC50 (μM) [3],concentration needed to show Jak/Stat3 signaling inhibition and anti-tumor activity [9] [µM]
"COc1ccc(CNCC(O)COc2cccc3[nH]c4ccccc4c23)c(OC)c1 (racemic) [Example 1, 1-(9H-carbazol-4-yloxy)-3-[(2,4-dimethoxybenzyl)amino]propan-2-ol]",5,9.8,60,0.78,18,62,45.7,55.3,5,8.5,39,79,work through pSTAT3 inhibition; also recorded: mechanism of action was through pSTAT3 inhibition,good in-vivo anti-cancer activity,52,4.8,–,–,–
"COc1ccc(CNC[C@@H](O)COc2cccc3[nH]c4ccccc4c23)c(OC)c1 [Example 24, (2R)-1-(9H-carbazol-4-yloxy)-3-[(2,4-dimethoxy-benzyl)amino]propan-2-ol]",18,51,79,0.76,53,67,–,–,–,8.3,53,80,–,good anti-cancer activity,–,9,no body weight loss was observed,No activity,–
N#C/C(=C/c1ccc(O)c(O)c1)C(=O)NCc1ccccc1 [AG490],–,–,–,–,–,–,–,–,–,–,–,–,–,–,–,–,–,–,50 to 100
